Measured values published in patent publication US5760036A, “Aminediol protease inhibitors” (E. R. Squibb & Sons, Inc., priority 1995, dated 1998).
Structures can show the parent of a compound that is named as a salt. Where two headings read alike, the source gives them in different places.

Assays:
HIV protease = target: T1, HIV protease (Human immunodeficiency virus type 1 group M subtype B, UniProt P04585); test: HIV Protease Assay; format: biochemical; settings: 4% DMSO, 450 μM substrate, pH 5.5, 30 minutes at 37° C., RP-HPLC; for inhibition at 10 µM: pH 5.5, 10 μM inhibitor, read-out: HIV Protease % Inhibition at 10 μM
T1 construct: and purified protease
Method in brief: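 Purified protease cleaved 450 μM octapeptide substrate in 50 mM sodium acetate pH 5.5 with 100 μg/ml BSA for 30 minutes at 37° C; product analyzed by reverse-phase HPLC at UV220 after H3PO4 quench. Inhibitors tested at final 10 μM with 4% DMSO.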

[1] = tested on: RF strain of HIV (CEM-SS cells); test: Cell Culture Anti-HIV Activity (cell viability, formazan); format: cell-based; settings: CEM-SS cells, RF strain of HIV, multiplicity of infection 0.04, 6 days at 37° C., 450 nm, read-out: HIV (CEM Cells) IC50
Method in brief: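 CEM-SS cells (5000/well) infected with HIV RF at MOI 0.04, exposed to half-log serial compound dilutions, incubated 6 days at 37° C. Viability read by tetrazolium reduction to formazan, absorbance 450 nm. IC50 is the concentration raising formazan in infected cells to 50% of uninfected, drug-free cells.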

[2] = Human immunodeficiency virus 1, CEM-SS, 144 h

| SMILES | inhibition at 10 µM (HIV protease) | IC50 [1, 2] | IC50 [1] | HIV Protease % Inhibition at 10 μM (HIV protease; 10 μM inhibitor) |
| --- | --- | --- | --- | --- |
| CC(C)[C@H](NC(=O)CCC(=O)Nc1ccccc1)C(=O)N[C@@H](Cc1ccccc1)[C@H](O)CNC[C@@H](O)[C@H](Cc1ccccc1)NC(=O)OC(C)(C)C (relative stereo) [Compound 204, [1R*,2S*(2S*,3R*)]-N-[3-[[3-[[(1,1-Dimethylethoxy)carbonyl]amino]-2-hydroxy-4-phenylbutyl]amino]-2-hydroxy-1-(phenylmethyl)propyl]-N^2-[[1,4-dioxo-4-(phenylamino)butyl]-L-valinamide] | 99% | 170 nM | – | – |
| CC(C)[C@H](NC(=O)OC(C)(C)C)C(=O)N[C@@H](Cc1ccccc1)[C@H](O)CNC[C@@H](O)[C@H](Cc1ccccc1)NC(=O)[C@@H](NC(=O)OC(C)(C)C)C(C)C [Compound 34, [S-(1R*,2S*)]-N,N'-[Iminobis[2-hydroxy-1-(phenylmethyl)-3,1-propanediyl]]bis[N^2-[(1,1-dimethylethoxy)carbonyl]-L-valinamide]] | 20% | > 9000 nM | – | – |
| CC(C)[C@H](NC(=O)OCc1ccccc1)C(=O)N[C@@H](Cc1ccccc1)[C@H](O)CNC[C@@H](O)[C@H](Cc1ccccc1)NC(=O)[C@@H](NC(=O)OCc1ccccc1)C(C)C [Compound 42, [1S-(1R*,2S*)]-N,N'-[Iminobis[2-hydroxy-1-(phenylmethyl)-3,1-proanediyl]bis[N^2-[(phenylmethoxy)carbonyl]-L-valinamide]] | 100% | 600 nM | – | – |
| O=C(N[C@@H](Cc1ccccc1)[C@H](O)CNC[C@@H](O)[C@H](Cc1ccccc1)NC(=O)OCc1ccccc1)OCc1ccccc1 [Compound 44, [R-(R*,S*)]-Iminobis[2-hydroxy-1-(phenylmethyl)-3,1-propandiyl]]biscarbamic acid, bis(phenylmethyl) ester] | 58% | > 5000 nM | – | – |
| CC(C)(C)OC(=O)N[C@@H](Cc1ccccc1)[C@H](O)CNC[C@@H](O)[C@H](Cc1ccccc1)NC(=O)OC(C)(C)CCCO [Compound 229, [R-(R*,S*)]-[Iminobis[2-hydroxy-1-(phenylmethyl)-3,1-propanediyl)]biscarbamic acid, 4-hydroxy-1,1-dimethyl-butyl 1,1-dimethylethyl ester] | 82% | 600 nM | – | – |
| CC(C)(C)OC(=O)N[C@@H](Cc1ccccc1)[C@H](O)CNC[C@@H](O)[C@H](Cc1ccccc1)NC(=O)OC1CCOC1 (stereo partly drawn) [Compound 310, [1S-(1R*,2S*)]l-[Iminobis[2-hydroxy-1-(phenylmethyl)3,1-propanediyl]]bis[carbamic acid], 3-tetrahydrofuranyl 1,1-dimethylethyl ester] | 100% | 180 nM | – | – |
| CC(C)[C@H](NC(=O)CCc1nc2ccccc2[nH]1)C(=O)N[C@@H](Cc1ccccc1)[C@H](O)CNC[C@@H](O)[C@H](Cc1ccccc1)NC(=O)OC(C)(C)C [Compound 103, [S-[1R*,2S*(2S*,3R*)]-N^2-[3-(1H-Benzimidazol-2-yl)-1-oxo-propyl]-N-[3-[[3-[[(1,1-di-methylethoxy)carbonyl]amino-4-phenylbutyl]amino]-2-hydroxy-1-(phenylmethyl)propyl]-L-valinamide] | 98% | 1700 nM | – | – |
| CC(C)[C@H](NC(=O)OC[C@H](O)CO)C(=O)N[C@@H](Cc1ccccc1)[C@H](O)CNC[C@@H](O)[C@H](Cc1ccccc1)NC(=O)OC(C)(C)C (relative stereo) [Compound 219, [[1R*,2S*(2S*,3R*)],N^2-(S*)]-N^2-[(2,3-Dihydroxypropoxy)carbonyl]-N-[3-[[3-[[(1,1-dimethylethoxy)carbonyl]-amino]-2-hydroxy-4-phenylbutyl]amino]-2-hydroxy-1-(phenylmethyl)propyl]-L-valinamide] | 86% | 35000 nM | – | – |
| CC1(C)CCCC1(O)C(=O)N[C@@H](Cc1ccccc1)[C@H](O)CNC[C@@H](O)[C@H](Cc1ccccc1)NC(=O)C1(O)CCCC1(C)C (single isomer, unassigned; isomer a) [Compound 336] | 100% | – | 40 nM | – |
| CC(C)[C@H](NC(=O)[C@H](Cc1ccccc1)NC(=O)OCc1ccccc1)C(=O)N[C@@H](Cc1ccccc1)[C@H](O)CNC[C@@H](O)[C@H](Cc1ccccc1)NC(=O)OC(C)(C)C [Compound 62, [1S-[1R*,2S*(2S*,3R*)]-N-[3-[[3-[[(1,1-Dimethylethoxy)carbonyl]amino]-2-hydroxy-4-phenylbutyl]amino]-2-hydroxy-1-(phenyl-methyl)propyl]-N^2-[(phenylmethoxy)carbonyl]-L-phenylalanyl]-L-valinamide] | 98% | 50 nM | – | – |
| CC(C)(C)OC(=O)N[C@@H](Cc1ccccc1)C(=O)N[C@@H](Cc1ccccc1)[C@H](O)CNC[C@@H](O)[C@H](Cc1ccccc1)NC(=O)[C@H](Cc1ccccc1)NC(=O)OC(C)(C)C [Compound 38, [S-(1R*,2S*)]-[Iminobis[2-hydroxy-1-(phenylmethyl)-3,1-propanediyl]]-bisimino-bis[N^2-[(1,1-dimethylethoxy)carbonyl]-L-phenyl-alaninamide]] | 3% | > 4000 nM | – | – |
| CC(C)(C)OC(=O)N[C@@H](Cc1ccccc1)[C@H](O)CNC[C@@H](O)[C@H](Cc1ccccc1)NC(=O)C1NC(=O)CC1(C)C (single isomer, unassigned) [Compound 267, [1S-[1R*,2S*(2S*,3R*)]]-[3-[[3-[[(3,3-Dimethyl-5-oxo-2-pyrrolidinyl)carbonyl]amino]-2-hydroxy-4-phenylbutyl]amino]-2-hydroxy-l-(phenylmethyl)propyl]carbamic acid, 1,1-dimethylethyl ester] | – | 180 nM | – | 97% |
| CC(C)(C)OC(=O)N[C@@H](Cc1ccccc1)[C@H](O)CNC[C@@H](O)[C@H](Cc1ccccc1)NC(=O)C(NC(=O)OCc1ccccc1)C(C)(C)O (single isomer, unassigned; isomer a) [Compound 301, [1S-[1R*,2S*(2S*,3R*)]]-[1-[[[3-[[(1,1-Dimethylethoxy)carbonyl]amino]-2-hydroxy-4-phenylbutyl]amino]-2-hydroxy-1-(phenylmethyl)propyl]amino]carbonyl]-2-hydroxy-2-methylpropyl]carbamic acid, phenylmethyl ester, isomer A] | 95% | 2400 nM | – | – |
| CC(C)[C@H](NC(=O)[C@@H](N)Cc1ccccc1)C(=O)N[C@@H](Cc1ccccc1)[C@H](O)CNC[C@@H](O)[C@H](Cc1ccccc1)NC(=O)[C@@H](NC(=O)[C@@H](N)Cc1ccccc1)C(C)C [Compound 92, [S-(1R*,2S*)]-N,N'-[Iminobis[2-hydroxy-1-(phenylmethyl)-3,1-propanediyl]bis[N^2-(L-phenylalanyl)-L-valinamide[,trihydrochloride] | 100% | 39000 nM | – | – |
| CC(C)(C)OC(=O)N[C@@H](Cc1ccccc1)[C@H](O)CNC[C@@H](O)[C@H](Cc1ccc(OCCOc2cccnc2)cc1)NC(=O)OC(C)(C)C [Compound 304, [1S-[1R*,2S* (2S*, 3R*)]]-[3-[[3-[[(1,1-Dimethylethoxy)carbonyl]amino]-2-hydroxy-4-[4-[2-(3-pyridinyloxy)ethoxylphenyl]butyl]amino]-2-hydroxy-1-(phenylmethyl)propyl]carbamic acid, 1,1-dimethylethyl ester] | 99% | 30 nM | – | – |
| CC(C)(CO)OC(=O)N[C@@H](Cc1ccccc1)[C@H](O)CNC[C@@H](O)[C@H](Cc1ccccc1)NC(=O)C1(O)CCCC1(C)C (single isomer, unassigned; isomer a) [Compound 368, [1S-[1R*,2S*(2S*,3R*)] -[3-[[3-[[(2,2-Dimethyl-1-hydroxycyclopentyl)-carbonyl]amino]-2-hydroxy-4-phenylbutyl]amino]-2-hydroxy-1-(phenylmethyl)propyl]carbamic acid, 2-hydroxy-1,1-dimethylethyl ester, isomer A] | 98% | 17 nM | – | – |
| CC(C)(C)OC(=O)N[C@@H](Cc1ccccc1)[C@H](O)CNC[C@@H](O)[C@H](Cc1ccccc1)NC(=O)C1(NC(=O)OCc2ccccc2)CCCC1 [Compound 87, [1S-[1R*,2S*(2S*,3R*)]]-[2-Hydroxy3-[[2-hydroxy-3-[[[1-[[(phenylmethoxy)-carbonyl]amino]cycloyentyl]carbonyl]amino]-4-phenylbutyl]-amino]-1-(phenylmethyl)propoyl]carbamic acid, 1,1-dimethylethyl ester] | 92% | > 880 nM | – | – |
| CC(C)[C@@H](C(=O)N[C@@H](Cc1ccccc1)[C@H](O)CNC[C@@H](O)[C@H](Cc1ccccc1)NC(=O)OC(C)(C)C)N(C)C(=O)OCc1ccccc1 [Compound 66, [S-[1R*,2S*(2S*,3R*)]]-N-[3-[[3-[(1,1-Dimethylethoxy)carbonyl)amino]-2-hydroxy-4-[phenylbutyl]amino]-2-hydroxy-1-(phenylmethyl)propyl]-N^2-methyl-N^2 [(phenylmethoxy)-carbonyl]-L-valinamide] | 99% | 270 nM | – | – |
